The text below walks through data of patent US5935990A, “Substituted pyrrolyl compounds for the treatment of inflammation” (G.D. Searle & Co., priority 1997, dated 1999).

For one test, the system named is COX-1. In words: Assay for COX-1 activity in vitro (PGE2 formed, ELISA). The conditions noted are these: recombinant COX-1 from SF9 insect cells, arachidonic acid 10 μM, pH 8.0, 10-20 min pre-incubation. It is filed as biochemical, human or murine. The procedure: The COX-2 inhibition activity of the compounds of this invention illustrated in the Examples was determined by the following methods.
a. Preparation of recombinant COX baculoviruses
Recombinant baculoviruses were isolated by transfecting 4 μg of baculovirus transfer vector DNA into SF9 insect cells (2×10^8) along with 200 ng of linearized baculovirus plasmid DNA by the calcium phosphate method. See M. D. Summers and G. E. Smith, A Manual of Methods for Baculovirus Vectors and Insect Cell Culture Procedures, Texas Agric. Exp. Station Bull. […] Recombinant viruses were purified by three rounds of plaque purification and high titer (10^7-10^8 pfu/mL) stocks of virus were prepared. For large scale production, SF9 insect cells were infected in 10 liter fermentors (0.5×10^6 /mL) with the recombinant baculovirus stock such that the multiplicity of infection was 0.1. […] The homogenate was centrifuged at 10,000×G for 30 minutes, and the resultant supernatant was stored at -80° C. before being assayed for COX activity.
COX activity was assayed as PGE2 formed/pg protein/time using an ELISA to detect the prostaglandin released. CHAPS-solubilized insect cell membranes containing the appropriate COX enzyme were incubated in a potassium phosphate buffer (50 mM, pH 8.0) containing epinephrine, phenol, and heme with the addition of arachidonic acid (10 μM). […] The PGE2 formed was measured by standard ELISA technology (Cayman Chemical).
For orientation: In an ELISA, binding on a coated surface is turned into a signal by an enzyme label.

A further test concerns rat paw edema. Nature of the test: Rat Carrageenan Foot Pad Edema Test. Type of test: in vivo, rat (Male Sprague-Dawley). The conditions noted are these: oral, 3 h after carrageenan injection. The procedure: The carrageenan foot edema test was performed with materials, reagents and procedures essentially as described by Winter, et al., (Proc. Soc. Exp. Biol. Med., 111, 544 (1962)). Male Sprague-Dawley rats were selected in each group so that the average body weight was as close as possible. Rats were fasted with free access to water for over sixteen hours prior to the test. The rats were dosed orally (1 mL) with compounds suspended in vehicle containing 0.5% methylcellulose and 0.025% surfactant, or with vehicle alone. One hour later a subplantar injection of 0.1 mL of 1% solution of carrageenan/sterile 0.9% saline was administered and the volume of the injected foot was measured with a displacement plethysmometer connected to a pressure transducer with a digital indicator. Three hours after the injection of the carrageenan, the volume of the foot was again measured. The average foot swelling in a group of drug-treated animals was compared with that of a group of placebo-treated animals and the percentage inhibition of edema was determined (Otterness and Bliven, Laboratory Models for Testing NSAIDs, in Non-steroidal Anti-Inflammatory Drugs, (J. Lombardino, ed. 1985)).
For orientation: The carrageenan paw model is a standard test of acute inflammation.

The next test in a line: Analgesia (Table I). Type of test: in vivo.

In general, IC50 refers to the concentration that gives 50% inhibition. Take `CS(=O)(=O)c1ccc(-c2cccn2-c2ccc(F)cc2)cc1` [Example 10, 1-(4-Fluorophenyl)-2-[4-(methylsulfonyl)phenyl]-1H-pyrrole]: the IC50 with COX-1 was greater than 100 µM.
As for `NS(=O)(=O)c1ccc(-n2cccc2-c2ccc(F)cc2)cc1` [Example 9, 4-[2-(4-Fluorophenyl)-1H-pyrrol-1-yl]benzenesulfonamide], the IC50 with COX-1 worked out at 10.4 µM.
For the compound `Cc1c(COc2cccc(Cl)c2)cc(-c2ccc(S(C)(=O)=O)cc2)n1-c1ccc(F)cc1` [Example 25, 3-[(3-Chlorophenoxy)methyl]-1-(4-fluorophenyl)-2-methyl-5-[4-(methylsulfonyl)phenyl]-1H-pyrrole], the IC50 with COX-1 was greater than 100 µM.
On the same count and under the same terms, next, `Cc1c(COc2ccc(Cl)cc2)cc(-c2ccc(S(C)(=O)=O)cc2)n1-c1ccc(F)cc1` [Example 26, 3-[(4-Chlorophenoxy)methyl]-1-(4-fluorophenyl)-2-methyl-5-[4-(methylsulfonyl)phenyl]-1H-pyrrole]: greater than 100 µM.
The same measure, in the same setting: the figure for `Cc1ccc(-c2ccc(S(C)(=O)=O)cc2)n1-c1ccc(F)cc1` [Example 1, 1-(4-Fluorophenyl)-2-methyl-5-[4-(methylsulfonyl)phenyl]-1H-pyrrole] is greater than 100 µM.
For the compound `CS(=O)(=O)c1ccc(-n2cccc2-c2ccc(F)cc2)cc1` [Example 8, 2-(4-Fluorophenyl)--1-[4-(methylsulfonyl)phenyl]-1H-pyrrole], the “RAT PAW EDEMA % Inhibition @ 30mg/kg body weight” value in the test with rat paw edema amounted to 56%. In “Analgesia (Table I)”, the “ANALGESIA % Inhibition @ 30mg/kg body weight” value was 47%.
For `Cc1c(S(=O)(=O)C(F)(F)F)cc(-c2ccc(S(C)(=O)=O)cc2)n1-c1ccc(F)cc1` [Example 16, 1-(4-Fluorophenyl)-2-methyl-5-[4-(methylsulfonyl)phenyl]-3-[(trifluoromethyl)sulfonyl]-1H-pyrrole], the IC50 with COX-1 is greater than 100 µM.
On the same count and under the same terms, next, `Cc1ccc(-c2ccc(S(C)(=O)=O)cc2)n1C1CCCCC1` [Example 7, 1-Cyclohexyl-2-methyl-5-[4-(methylsulfonyl)phenyl]-1H-pyrrole]: 62.4 µM.
